According to US4338331A, “Isoindoline derivative and a therapeutic composition thereof” (priority 1979, dated 1982):
Values joined by “and” are separate entries in the source; they are usually repeats but may differ in a detail not shown here. Equal entries are not always repeated.

Experiments:
male Wistar rat [1] = test: Chronic (subacute) toxicity, 28 days oral, male rat; type: in vivo; conditions: 20 and 40 mg/kg/day oral, 28 days
Protocol: (§1) These tests were carried out on the male Wistar rat having a body weight which varied from 188 to 228 grams. The animals were randomly divided into groups of ten each, and treated in the following manner:
(§2) Group A--CONTROLS--10% gum arabic, 10 ml/kg/day by oral administration using a gastro-oesophageal probe for 28 consecutive days;
(§3) Group B--CM/1 20 mg/10 ml of 10% gum arabic per kg/day by oral administration using a gastro-oesophageal probe for 28 consecutive days;
(§4) Group C--CM/1 40 mg/10 ml of 10% gum arabic per kg/day by oral administration using a gastro-oesophageal probe for 28 consecutive days.
(§5) In all the groups tested, the body weight was measured daily at the moment of administration, and recorded at regular intervals.
(§6) The general conditions of food and water consumption were noted, and any mortality and the symptomatology were recorded.
(§7) Between the 25th and 27th day of treatment, all the tested groups were kept in suitable metabolic cages (single) in order to collect the urine spontaneously ejected, and thus determine its composition by reactive Bili-Labstix strips of Ames.
(§8) Between the 27th and 29th day of treatment, all the animals, which has fasted for 12 hours but with free access to water, were sacrificed by decapitation (a small animal decapitator of the Amer. Instr. Corp. was used). The following were determined from the blood collected from the trunk:
(§9) azotemia (Dell'Aira, in King E.--Microanalisi nella Biochimica medica. II Pensiero Sci. Ed., ROMA 1951);
(§10) glycemia (Price D. J.--Analyst 92; 198, 1967);
(§11) total bilirubinemia (Jendrassik L. and Grof. P.--Biochem. Z. 297;81, 1938);
(§12) total cholesterolemia (Huan T. C., Chen C. P., Wefler V. and Battey A.--Anal. Chem. 33; 1405, 1961);
(§13) total lipidemia (Zollner N. and Kirsch K.--Z. ges. Exp. Med. 135; 545, 1962)
(§14) SGOT and SGPT transaminase (Reitman S. and Frankel E.--Amer J. Clin. Path. 28;56, 1957);
(§15) total protidemia by the biuret colorimetric method, using lyphilised Hyland serum as standard;
(§16) sodaemia and potassaemia using the photometric method.
(§17) A macroscopic examination was also made of the main organs in order to note any alterations or tumor masses which could indicate neoplasia. Particular attention was given to the examination of the stomach and intestine of the rats treated with the highest dose, in order to determine the degree of local tolerability to repeated administration of CM/1 over 28 days by the gastro-enteric mucosa.
(§18) For this purpose, the stomach and intestine were subjected to macro and microscopic examination, these being sectioned along the greater curvature (stomach) and along the major axis (intestine), washed with tepid physiological solution extended and carefully observed with a magnifying lens, in order to note hyperemia zones with ulcerations or with other trophic alterations of the mucosa.

[2] = as above; type: in vivo; conditions: rat, in vivo, 4 weeks
Protocol: as §1, §2, §3, §4, §5, §6, §7, §8, §9, §10, §11, §12, §13, §14, §15, §16, §17, §18

Swiss mouse = test: Acute toxicity, oral, mouse; type: in vivo
Protocol: (§19) Acute toxicity was determined orally in the Wister rat and in the Swiss mouse of both sexes.
(§20) The animals were kept fasting for at least 12 hours before the tests but whith free access to water. The compound was suspended homogeneously in gum arabic mucilage and was administered, at the set doses, in a volume of 40 ml/kg by means of a gastro-oesophageal probe.
(§21) Each dose was tested on ten animals, of which five were male and five female. The weight of the rats varied from 300 to 350 g for the males and from 220 g to 250 g for the females. The weight of the mice, of both sexes, varied from 28 g to 35 g.
(§22) The observation lasted ten days.

[3] = Acute toxicity, oral, mouse; type: in vivo; conditions: in vivo, mouse, read-out: DL50
Protocol: as §19, §20, §21, §22

Wister rat = test: Acute toxicity, oral, rat; type: in vivo
Protocol: as §19, §20, §21, §22

[4] = Acute toxicity, oral, rat; type: in vivo; conditions: in vivo, rat, read-out: DL50
Protocol: as §19, §20, §21, §22

male rats = test: Diuretic and saluretic activity: excretion of a load of distilled water (TABLE 2); type: in vivo, Wistar rat; conditions: 5 mg/kg oral + aqueous load
Protocol: Both the CM/1 and the Indapamide were administered orally after being suitably dissolved in the following solvent:
The controls were treated with an equal volume of solvent. The experiments were carried out on animals which had regularly fasted for at least 12 hours, but had free access to water.
The sodium and potassium in the urine were determined by a photometric method.
The rats were then immediately placed in individual metabolic cages. The urine was collected over 4 hours. The quantity has been expressed in the usual manner as a percentage of the volume administered.
Sodium and potassium were also analysed, and these have been expressed as mEq/4h.
After two days, in the preceding manner, the same rats were treated with Indapamide, and after a further two days with the product CM/1. In the interval between one test and the other, the rats were housed and fed in the normal manner. The dose used for both compounds was the same as previously, i.e. 5 mg/kg.

male Wistar rat [5] = test: Chronic (subacute) toxicity, 28 days oral, male rat; type: in vivo; conditions: 20 mg/kg and 40 mg/kg, printed '48 consecutive days'

CC1c2ccccc2CN1NC(=O)c1ccc(Cl)c(S(N)(=O)=O)c1 (stereo not shown) [CM/1, 1-methyl-2-(3'-sulphamyl-4'-chlorobenzamido)-isoindoline]
alteration in the organs examined or in the gastro-enteric mucosa (male Wistar rat [1]): No alteration was noted | behaviour and food consumption (male Wistar rat [1]): Behaviour was normal, as was food consumption | deaths during the 28 days of treatment (male Wistar rat [1]): no deaths were recorded | sodaemia and potassaemia (male Wistar rat [1]): slight reduction in the potassaemia and sodaemia | symptomatology (male Wistar rat [1]): No particular symptomatology was noted | urine composition (male Wistar rat [1]; collected days 25-27, versus controls): in practice similar for the controls and treated animals | hematic biochemical constants (male Wistar rat [1]; except sodaemia and potassaemia): all within the range of normal values for the rat of this stock | body weight (male Wistar rat [1]; versus controls): in practice similar to the data for the controls | hemograms (male Wistar rat [1]; versus controls): all normal, without any significant differences between the controls and treated animals | water consumption (male Wistar rat [1]; versus controls): slightly greater than the controls | selectivity ratio at 672 h ([2]; daily doses up to 40 mg/kg oral, read-out: tolerated doses relative to the maximum daily human therapeutic dose): 560 | NOAEL at 672 h ([2]; oral, read-out: well tolerated daily dose (subacute toxicity)): ≥ 40 mg/kg/day | DL50 (Swiss mouse; Swiss mouse, both sexes, 10 days observation): > 2,500 mg/kg | deaths / toxic symptomatology (Swiss mouse; mouse, individual doses up to 2,500 mg/kg): No deaths were observed either in the rat or in the mouse, nor was any particular toxic symptomatology found | LD50 at 240 h [3]: > 2500 mg/kg | DL50 (Wister rat; Wister rat, both sexes, 10 days observation): > 2,500 mg/kg | deaths / toxic symptomatology (Wister rat; rat, individual doses up to 2,500 mg/kg): No deaths were observed either in the rat or in the mouse, nor was any particular toxic symptomatology found | LD50 at 240 h [4]: > 2500 mg/kg | activity of CM/1 compared with Indapamide (male rats): more active than the Indapamide | diuretic and saluretic action (male rats): significant diuretic and saluretic action | RATIO Na/K (sodium to potassium excreted) (male rats; 4 h, average): 2.6955 | Cumulative percent excretion at 1 hour from load (male rats; individual rats): 58.1% and 50.0% and 7.1% and 55.2% and 51.6% | Cumulative percent excretion at 2 hours from load (male rats; individual rats): 109.7% and 78.6% and 57.1% and 110.4% and 125.8% | Cumulative percent excretion at 3 hours from load (male rats; individual rats): 116.2% and 107.2% and 85.7% and 134.5% and 145.2% | Cumulative percent excretion at 4 hours from load (male rats; individual rats): 116.2% and 121.4% and 114.3% and 134.5% and 167.8% | Potassium excretion (male rats; individual rats): 0.00542 mEq/4h and 0.00512 mEq/4h and 0.00603 mEq/4h and 0.00856 mEq/4h and 0.01399 mEq/4h | Sodium excretion (male rats; individual rats): 0.01374 mEq/4h and 0.01362 mEq/4h and 0.0125 mEq/4h and 0.01671 mEq/4h and 0.04889 mEq/4h | Cumulative percent excretion at 1 hour from load (male rats; mean of 5 rats): 44.4% | Cumulative percent excretion at 2 hours from load (male rats; mean of 5 rats): 96.32% | Cumulative percent excretion at 3 hours from load (male rats; mean of 5 rats): 117.76% | Cumulative percent excretion at 4 hours from load (male rats; mean of 5 rats): 130.84 ± 9.89% | Potassium excretion (male rats; mean of 5 rats): 0.007824 mEq/4h | Sodium excretion (male rats; mean of 5 rats): 0.02109 mEq/4h | damaging side-effects (male Wistar rat [5]): no damagingside-effects
